The experiment deals with syngeneic tumor 3LL-D122. In words: Survival of mice bearing 3LL-D122 tumor after surgery of the primary tumor (Examples 5 and 6). The note with it: EGF-p64 vaccine i.m., two weeks later Cyclophosphamide 50 mg/kg i.v., three days later second vaccine dose; versus vaccine plus saline or Cyclophosphamide only. The class given is in vivo, C57BL/6 mice. As for the experimental part: C57BL/6 mice were injected with the syngeneic tumor 3LL-D122 (200,000 cells/animal) in the right plantar pad. The evolution of the tumor was evaluated by measurement of its diameters every 3 days and surgery of the primary tumor was practiced (amputation) when it reached 8-9 mm of diameter. Mice survival, which is depended of spontaneous lung metastases was measured.
Two days after the inoculation of the tumor mice were injected by intramuscular route with a vaccine that contains 4 μg of human EGF conjugated to the p64 protein (EGF-p64) in Montanide ISA 51 (100 μl final volume) and two weeks later they were treated with 50 mg/kg of Cyclophosphamide by intravenous route or with saline solution. After three days, the mice were re-immunized by intramuscular route with a second dose of the EGF-p64 vaccine.
An animal group just was treated by intravenous route with 50 mg/kg of Cyclophosphamide and another one was not treated.
C57BL/6 mice were injected with the syngenic tumor 3LL-D122 as it is described in Example 5.
Two days after to the inoculation of the tumor, mice were injected by intramuscular route with a vaccine that contains 4 μg of human EGF conjugated to the P64 protein (EGF-p64) in Montanide ISA 51 (100 μl final volume) and two weeks later they were treated with 1 mg of anti-CD25 monoclonal antibody by intravenous route or with saline solution as control. […]

Drawing on patent US20060251654A1, “Method for treatment of malignant and infectious chronic diseases” (Centro de Inmunologia Molecular, priority 2001, published 2006), this text covers mice survival for 1 compound.

`O=P1(N(CCCl)CCCl)NCCCO1` (stereo not shown) [Cyclophosphamide]: the mice survival result was “increases the mice survival”.
